Assay results: the NIST ThermoML archive (doi:10.1021/acs.jced.5b00116)
± gives the expanded uncertainty stated by the source.

Assay: activity coefficient (dimensionless); of the first substance listed, at infinite dilution; wn = mass fraction of the nth substance listed
Conditions: 101 kPa, Liquid, Chromatography, w1 = 0

SMILES	activity coefficient (313.15 K)	activity coefficient (333.15 K)	activity coefficient (353.15 K)	activity coefficient (373.15 K)	activity coefficient (393.15 K)
CCO [ethanol] + OCC(O)CO	4.76 ± 0.5	3.98 ± 0.42	3.73 ± 0.39	3.52 ± 0.37	3.25 ± 0.34
O [water] + OCC(O)CO	0.73 ± 0.08	0.75 ± 0.08	0.78 ± 0.08	0.79 ± 0.08	0.8 ± 0.08
